Assay results published in ChEMBL document CHEMBL1144881, “3,6-dibromocarbazole piperazine derivatives of 2-propanol as first inhibitors of cytochrome c release via Bax channel modulation” (J Med Chem, 2003).

Experiments:
[1] = target: Apoptosis regulator BAX (Homo sapiens) (UniProt Q07812); experiment: cells
HeLa [2] = experiment: In vitro inhibition of cytochrome C release in isolated mitochondria by the compound was determined; format: functional, Homo sapiens; design: concentration or dose not given beside the values
HeLa [3] = experiment: cells; format: functional; conditions: Homo sapiens
HeLa [4] = experiment: cells; format: functional; conditions: Homo sapiens; remark: listed apart in the source
Description: In vitro inhibition of cytochrome C release in isolated mitochondria by the compound at a concentration of 10 uM was determined

HeLa [5] = experiment: cells; format: functional; conditions: Homo sapiens; remark: listed apart in the source
Description: In vitro inhibition of cytochrome C release in isolated mitochondria by the compound at a concentration of 20 uM was determined

| Structure (SMILES) | IC50 [1] | Inhibition (HeLa [2]) | inhibition at 5 µM (HeLa [3]) | inhibition at 10 µM (HeLa [4]) | inhibition at 20 µM (HeLa [5]) |
| --- | --- | --- | --- | --- | --- |
| OC(CN1CCN(c2ccc(F)cc2)CC1)Cn1c2ccc(Br)cc2c2cc(Br)ccc21 (stereo not given) | 2380 nM | 15% | – | – | – |
| FC(F)(CN1CCNCC1)Cn1c2ccc(Br)cc2c2cc(Br)ccc21 | 680 nM | – | 61% | 83% | 96% |
| OC(CN1CCN(Cc2ccc(F)cc2)CC1)Cn1c2ccc(Br)cc2c2cc(Br)ccc21 (stereo not given) | 480 nM | 65% | – | – | – |
| OC(CN1CCN(CCN2CCOCC2)CC1)Cn1c2ccc(Br)cc2c2cc(Br)ccc21 (stereo not given) | 470 nM | – | 21% | 74% | 95% |
| NC(CN1CCNCC1)Cn1c2ccc(Br)cc2c2cc(Br)ccc21 (stereo not given) | 960 nM | 71% | – | – | – |
| OC(CN1CCNCC1)Cn1c2ccc(Br)cc2c2cc(Br)ccc21 (stereo not given) | – | – | 77% | 94% | 99% |
| COc1ccc(CN2CCN(CC(O)Cn3c4ccc(Br)cc4c4cc(Br)ccc43)CC2)cc1 (stereo not given) | 370 nM | – | 61% | 82% | 99% |
| O=C(Nc1ccc(F)cc1)N1CCN(CC(O)Cn2c3ccc(Br)cc3c3cc(Br)ccc32)CC1 (stereo not given) | 1270 nM | 15% | – | – | – |
| O=C(CN1CCNCC1)Cn1c2ccc(Br)cc2c2cc(Br)ccc21 | 290 nM | 71% | – | – | – |
